Laboratory results: US20240166627A1, “Terpyridinedione compound or salt thereof, and preparation method and application thereof” (SHENZHEN SALUBRIS PHARMACEUTICALS CO., LTD., priority 2021, published 2024)

Test system: production of TNFα in U937
Assay: Releasing TNFα from U937 induced by LPS
Type: cell-based
Conditions: Homo sapiens, U-937; PMA-differentiated U937, LPS 100 ng/ml, 4 h; read-out: IC50 value that the compound inhibits the production of TNFα
Excerpt: Cytokine regulation in human monocytes has shown that the p38 pathway is the key to the biosynthesis of a plurality of pro-inflammatory cytokines including TNFα, IL-1β and IL-6. Therefore, the inhibition of the p38 MAPK pathway is to reduce inflammatory response by reducing the biosynthesis of the pro-inflammatory cytokines. […] This is a reflection of the effect of the compound in the present invention to facilitate reduction of inflammation, which is useful in the treatment of various diseases, including chronic inflammatory diseases, acute inflammatory diseases, or self-inflammatory diseases. The potency and efficacy of the p38 inhibitor in blocking cytokine production are evaluated using a human U937 cell line.
A 1640 medium with an article number being A10491-01, Gibco; penicillin-streptomycin with an article number being 15140-122, Gibco; fetal bovine serum with an article number being 10099-141C, Gibco; PBS with an article number being 10010-031, Gibco; LPS with an article number being L2880, Sigma; PMA with an article number being P1585, Sigma; dimethyl sulfoxide with an article number being D8418-1L, Sigma; and a TNFα kit with an article number being K151QWD-4, MSD.
A 96-well plate with an article number being 3599, Corning; a plate-vibrating device with an article number being QB-9002, QILINBEIER; a centrifuge with an article number being 5810R, Eppendorf; a carbon dioxide incubator with an article number being 371, Thermo; a counter with an article number being C10281, Gibco; a microscope with an article number being CKX41, OLYMPUS; and an MSD plate reader with an article number being 1201 MESO SECTOR 600, MSD.
U937, ATCC with an article number being CRL-1593.2.
About 2 mg of a drug is weighted; a mother solution is prepared to 10 mM (which is calculated by free alkali) by means of DMSO; and the mother solution is diluted 10-fold to 1 mM, and then is successively diluted 4-fold to 250 μM, 62.5 μM, 15.6 μM, 3.9 μM, 0.97 μM, 0.24 μM, and 0.061 μM. The above series of diluted DMSO drugs is diluted 20-fold as working solutions by using media.
At Day 0, 10000/well inoculation is performed, stimulation is performed for 48 h with 20 ng/ml of PMA, and culture is performed at 37° C., 5% CO2. • At Day 2, 1. Supernatant is removed from differentiated U937, cleaning is performed once with PBS, and 96 μl of the 1640 medium is added. • 2. 2 μl of the compound containing (DMSO with a final concentration being 0.1%), and culture is performed for 30 min at 37° C., 5% CO2. • 3. 2 μl of LPS (a final concentration being 100 ng/ml) is added, cells are stimulated, and culture is performed for 4 h at 37° C., 5% CO2. • 4. Centrifugation is performed, supernatant is taken, and content of TNFα in the supernatant is determined through ELISA.
The content of TNFα corresponding to each well is calculated by using a standard curve in the kit.
The compound IC50 is calculated by using a GraphPad nonlinear fitting formula, and for an experimental result, refer to Table 1.

Structure (SMILES)	IC50
Cc1cnc(-n2cccc(C(C)(C)O)c2=O)cc1-n1c(C)cc(OCc2ccc(Cl)cn2)c(Cl)c1=O [Embodiment 14, 3″-chloro-4″-((5-chloropyridine-2-yl)methoxy)-3-(2-hydroxypropane-2-yl)-5′,6″-dimethyl-2H,2″H-[1,2′:4′,1″-terpyridine]-2,2″-diketone]	8.21 nM
Cc1cnc(-n2cccc(C(C)(C)O)c2=O)cc1-n1c(C)cc(OCc2ccc(Cl)cc2F)c(Cl)c1=O [Embodiment 9, 3″-chloro-4″-((4-chloro-2-fluorobenzyl)oxy)-3-(2-hydroxypropane-2-yl)-5′,6″-dimethyl-2H,2″H-[1,2′:4′,1″-terpyridine]-2,2″-diketone]	2.72 nM
Cc1cnc(-n2cccc(C(C)(C)O)c2=O)cc1-n1c(C)cc(OCc2c(F)cccc2F)c(Cl)c1=O [Embodiment 15, 3″-chloro-4″-((2,6-difluorophenyl)methoxy)-3-(2-hydroxypropane-2-yl)-5′,6″-dimethyl-2H,2″H-[1,2′:4′,1″-terpyridine]-2,2″-diketone]	1.6 nM
Cc1cnc(-n2cccc(C(C)(C)O)c2=O)cc1-n1c(C)cc(OCc2ncc(F)cc2Cl)c(Cl)c1=O [Embodiment 25, 3″-chloro-4″-((3-chloro-5-fluoropyridine-2-yl)methoxy)-3-(2-hydroxypropane-2-yl)-5′,6″-dimethyl-2H,2″H-[1,2′:4′,1″-terpyridine]-2,2″-diketone]	6.06 nM
Cc1cnc(-n2cccc(C(C)(C)O)c2=O)cc1-n1c(C)cc(OCc2cc(F)ccc2F)c(Cl)c1=O [Embodiment 18, 3″-chloro-4″-((2,5-difluorobenzyl)oxy)-3-(2-hydroxypropane-2-yl)-5′,6″-dimethyl-2H,2″H-[1,2′:4′,1″-terpyridine]-2,2″-diketone]	2.39 nM
Cc1cnc(-n2cccc(C(C)(C)O)c2=O)cc1-n1c(C)cc(OCc2ccc(F)c(F)c2)c(Cl)c1=O [Embodiment 23, 3″-chloro-4″-((3,4-difluorobenzyl)oxy)-3-(2-hydroxypropane-2-yl)-5′,6″-dimethyl-2H,2″H-[1,2′:4′,1″-terpyridine]-2,2″-diketone]	5.53 nM
Cc1cnc(-n2cccc(C(C)O)c2=O)cc1-n1c(C)cc(OCc2ncc(F)cc2F)c(Cl)c1=O (stereo not drawn) [Embodiment 24, 3″-chloro-4″-((3,5-difluoropyridine-2-yl)methoxy)-3-(1-hydroxyethyl)-5′,6″-dimethyl-2H,2″H-[1,2′:4 1″-terpyridine]-2,2″-diketone]	11.2 nM
Cc1cnc(-n2cccc(C(C)(C)O)c2=O)cc1-n1c(C)cc(OCc2ncc(Cl)cc2F)c(Cl)c1=O [Embodiment 5, 3″-chloro-4″-((3-fluoro-5-chloropyridine-2-yl)methoxy)-3-(2-hydroxypropane-2-yl)-5′,6″-dimethyl-2H,2″H-[1,2′:4′,1″-terpyridine]-2,2″-diketone]	4.05 nM
Cc1cnc(-n2cccc(C(C)(C)O)c2=O)cc1-n1c(C)cc(OCc2ccc(F)cn2)c(Cl)c1=O [Embodiment 21, 3″-chloro-4″-((5-fluoropyridine-2-yl)methoxy)-3-(2-hydroxypropane-2-yl)-5′,6″-dimethyl-2H,2″H-[1,2′:4′,1″-terpyridine]-2,2″-diketone]	7.11 nM

Now from value to molecule:

IC50	Structure (SMILES)
11.9 nM	Cc1cnc(-n2cccc(C(C)(C)O)c2=O)cc1-n1c(C)cc(OCc2cccnc2)c(Cl)c1=O [Embodiment 30, 3″-chloro-3-(2-hydroxypropane-2-yl)-5′,6″-dimethyl-4″-((pyridin-3-yl)methoxy)-2H,2″H-[1,2′:4′,1″-terpyridine]-2,2″-diketone]
8.11 nM	Cc1cnc(-n2cccc(C(C)(C)O)c2=O)cc1-n1c(C)cc(OCc2ncccc2Cl)c(Cl)c1=O [Embodiment 19, 3″-chloro-4″-((3-chloropyridine-2-yl)methoxy)-3-(2-hydroxypropane-2-yl)-5′,6″-dimethyl-2H,2″H-[1,2′:4′,1″-terpyridine]-2,2″-diketone]
2.05 nM	Cc1cnc(-n2cccc(C(C)(C)O)c2=O)cc1-n1c(C)cc(OCc2ccc(F)cc2F)c(Cl)c1=O [Embodiment 4, 3″-chloro-4″-((2,4-difluorobenzyl)oxy)-3-(2-hydroxypropane-2-yl)-5′,6″-dimethyl-2H,2″H-[1,2′:4′,1″-terpyridine]-2,2″-diketone]
4.26 nM	Cc1cnc(-n2cccc(C(C)(C)O)c2=O)cc1-n1c(C)cc(OCc2c(F)cccc2C#N)c(Cl)c1=O [Embodiment 13, 2-(((3″-chloro-3-(2-hydroxypropane-2-yl)-5′,6″-dimethyl-2,2″-dione-2H,2″H-[1,2′:4′,1″-terpyridine]-4″-yl)oxy)methyl)-3-fluorobenzonitrile]
24.3 nM	Cc1cc(C(C)(C)O)c(=O)n(-c2cc(-n3c(C)cc(OCc4ncc(F)cc4F)c(Cl)c3=O)c(C)cn2)c1 [Embodiment 35, 3″-chloro-4″-((3,5-difluoropyridine-2-yl)methoxy)-3-(2-hydroxypropane-2-yl)-5,5′,6″-trimethyl-2H, 2″H-[1,2′:4′,1″-terpyridine]-2,2″-diketone]
5.09 nM	Cc1cnc(-n2cccc(C(C)(C)O)c2=O)cc1-n1c(C)cc(OCc2ncccc2C)c(Cl)c1=O [Embodiment 12, 3″-chloro-4″-((3-methylpyridin-2-yl)methoxy)-3-(2-hydroxypropane-2-yl)-5′,6″-dimethyl-2H,2″H-[1,2′:4′,1″-terpyridine]-2,2″-diketone]
15.1 nM	Cc1cnc(-n2ccc(C)c(C(C)(C)O)c2=O)cc1-n1c(C)cc(OCc2ncc(F)cc2F)c(Cl)c1=O [Embodiment 29, 3″-chloro-4″-((3,5-difluoropyridine-2-yl)methoxy)-3-(2-hydroxypropane-2-yl)-4,5′,6″-trimethyl-2H, 2″H-[1,2′:4′,1″-terpyridine]-2,2″-diketone]
14.4 nM	Cc1cnc(-n2cccc(C(C)(C)O)c2=O)cc1-n1c(C)cc(OCc2ccc(C#N)cc2F)c(Cl)c1=O [Embodiment 8, 4-(((3″-chloro-3-(2-hydroxypropane-2-yl)-5′,6″-dimethyl-2,2″-dioxo-2H,2″H-[1,2 2′:4′,1″-terpyridine]-4″-yl)oxy)methyl)-3-fluorobenzonitrile]
16.6 nM	Cc1cnc(-n2cccc(C(C)(C)O)c2=O)cc1-n1c(C)cc(OCc2ncc(C3CC3)cc2F)c(Cl)c1=O [Embodiment 27, 3″-chloro-4″-((3-fluoro-5-cyclopropylpyridine-2-yl)methoxy)-3-(2-hydroxypropane-2-yl)-5′,6″-dimethyl-2H,2″H-[1,2′:4′,1″-terpyridine]-2,2″-diketone]
